From patent US20240277708A1, “Use of [1,2,4] Triazolo [4,3-B] Pyridazine Derivative For Preventing and Treating Senescence and Senescence-Related Diseases” (The Eighth Affiliated Hospital, Sun Yat-Sen University, priority 2023, published 2024)

Tests used:
Assay type in all cases: in vivo
TERC−/− G4 mice = test: TERC−/− G4 senescence mouse model: survival and lung immunohistochemistry
Procedure: Paraffin sections were melted at 65° C. for 1 h, rehydrated by rinsing in xylene for 10 min, xylene for 10 min, absolute ethanol for 3 min, 95% ethanol for 3 min, 85% ethanol for 3 min, 70% ethanol for 3 min and water, followed by two rinses with PBS for 5 min each. The sections were blocked with 3% hydrogen peroxide (in methanol) for 10 min, and then washed twice with PBS for 5 min each time. Then the sections were put into antigen retrieval buffer (pH 6.0) and heat by microwave for 10 min to retrieve antigen, then, slowly cool the solution at room temperature for 1 h, and wash the solution twice with PBS for 5 min each time. The sections were blocked with 10% goat serum for 1 h, incubated overnight with the primary antibodies at 4° C. in the dark, washed twice with PBS for 5 min each time, incubated with the secondary antibodies at room temperature in the dark for 30 min, and washed twice with PBS for 5 min each time. The sections were subjected to DAB color development and hematoxylin staining, and then rinsed in tap water for 8 min to produce a blue color. The sections were dehydrated with gradient alcohol, dried, and sealed with neutral gum.
1, TERC−/−G4 senescence mouse model: Mice had very long telomere length, and it took 3-6 generations of breeding to develop a premature senescence phenotype after telomerase knockout. TERC+/−mice were screened for TERC+/−mice as breeding protection. The first generation of TERC−/− mice was G1 mice. G1 mice were mated with each other to give birth to G2 mice, which continued to reproduce until G4. At this time, mice had very short telomeres and could develop senescence phenotype at 3-4 months of age.
2, Genotype identification of TERC knockout mice: Small segments of tails were cut from the identified mice and digested in 10 mM Tris-HCl 0.5% SDS 1 mM EDTA pH8.0 buffer containing 0.4 mg/mL proteinase K at 65° C. for 2 hours, and then 0.5 μL digestive solution was used as a template for PCR amplification. PCR products which were 250 bp indicated wild-type and 180 bp indicated TERC knockdown.
3, One-month-old G4 mice were given 68 mg/kg C1632 once a week, with 10 mice in each group.
4, Since senescent cells were mainly eliminated by immune cells in vivo, in addition to inhibiting the generation of senescent cells, the inventors also examined the effect of C1632 on the immune microenvironment of senescent lung tissue.

C57BL/6 mice = test: Safety profile in IPF model and control mice: body weight and routine blood test
Procedure: In order to test the safety profile of C1632, the IPF model C57BL/6 mice and the control mice were intraperitoneally injected with 68 mg/kg C1632 three times a week and weighed, respectively. At the end of the experiment, the whole blood was a collected for routine blood test. […] In addition, the routine blood test results of mice in each group are mostly within the reference interval.

CKD mice (C57BL/6 male) = test: Purine (AP) feed-induced chronic kidney disease (CKD) mouse model; conditions: 68 mg/kg twice a week
From the text: The protocol for constructing a chronic kidney disease (CKD) mouse model in this example was as follows: 8-week-old C57BL/6 male mice were fed with a feed containing 2‰ purine for 1 month, then, fed with a feedcontaining 1.5‰ purine for 3 months. There were at least 10 mice in each group.
(§1) The mice were divided into three groups: (1) normal group; (2) AP+Saline group; (3) AP+C1632 group, 10 mice in each group. The CKD mice in group (3) were fed with a feed containing 2‰ AP for 1 month and then treated with C1632. C1632 was administered twice a week at a dose of 68 mg/kg of body weight each time.
as §1, with “(2) AP+saline” for “(2) AP+Saline”, “group […]” for “group (3)”, “time. During the subsequent 83 days of treatment, the survival of the mice was counted.” for “time.”
The mice were divided into three groups: (1) normal group; (2) AP+saline group; (3) AP+C1632 group, 10 mice in each group. The CKD mice in group (2) and group (3) were fed with a feed containing 2‰ AP for 1 month and then treated with C1632. C1632 was administered twice a week at a dose of 68 mg/kg of body weight each time. After 3 months, the mice were sacrificed, and the kidneys were removed for Masson staining.

[1] = normal mice, 68 mg/kg i.p. three times a week

SMILES: CC(=O)N(C)c1cccc(-c2ccc3nnc(C)n3n2)c1 [C1632]
- Life span of TERC−/− G4 mice (TERC−/− G4 mice; 68 mg/kg once a week, survival curves FIG. 2A): greatly extended the life span
- Mice still surviving when all control mice had died (TERC−/− G4 mice; TERC−/− G4 mice, 68 mg/kg once a week from one month of age, 3 and a half months after the experiment, FIG. 2A): 80%
- Immunosuppressive T cell marker FOXP3 in senescent lung tissue (immunohistochemistry) (TERC−/− G4 mice; lung tissues from senescence mice, FIG. 3): reduces the immunosuppressive T cell marker FOXP3
- Lung tissue senescence (expression of senescence markers p16 and p21, immunohistochemistry) (TERC−/− G4 mice; lungs of TERC−/− G4 mice, 68 mg/kg once a week, FIG. 2B): significantly inhibited lung tissue senescence
- Routine blood tests overall (C57BL/6 mice; IPF mice, 68 mg/kg i.p. three times a week, FIG. 11B to 11S): does not cause deterioration
- Body weight compared with the corresponding saline group (C57BL/6 mice; IPF model and control mice, 68 mg/kg intraperitoneally three times a week, FIG. 11A): does not significantly change the body weight
- Mean platelet volume (MPV), model group (C57BL/6 mice; IPF model mice, 68 mg/kg i.p. three times a week): no significant effect
- PDW, fibrotic mice (C57BL/6 mice; fibrotic (IPF) mice, 68 mg/kg i.p. three times a week): no significant effect
- Mean platelet volume (MPV), normal mice (C57BL/6 mice; [1]): significantly increase
- PDW, normal mice (C57BL/6 mice; [1]): significantly inhibits
- Mortality of CKD model mice (CKD mice (C57BL/6 male); 83 days of treatment, FIG. 13): significantly reduces the mortality
- Collagen fibers in the kidney, Masson staining (kidney fibrosis) (CKD mice (C57BL/6 male); after 3 months, FIG. 14): significantly inhibits the level of collagen fibers
- Weight loss in CKD mice (CKD mice (C57BL/6 male); vs control (saline) mice, FIG. 12): significantly inhibits weight loss
